# Data from patent publication US20240000075A1, “FUNGICIDAL ARYL AMIDINES” (CORTEVA AGRISCIENCE LLC, priority 2020, published 2024).
# Where two headings read alike, the source gives them in different places.
# How the values were obtained:
# [1] = system: Zymoseptoria tritici; experiment: Septoria leaf blotch of wheat, whole-plant fungicidal activity (SEPTTR); type: in vivo, Zymoseptoria tritici on wheat plants (variety 'Yuma'); details: read-out: % Disease Control Rating SEPTTR
# Procedure: Example A: Evaluation of Fungicidal Activity: Septoria Leaf Blotch of Wheat (Zymoseptoria tritici; Bayer Code […]) Technical grades of materials were dissolved in acetone, which were then mixed with nine volumes of water (H2O) containing 110 ppm Triton X-100. The fungicide solutions were applied onto wheat seedlings using an automated booth sprayer to run-off. All sprayed plants were allowed to air dry prior to further handling. All fungicides were evaluated using the aforementioned method for their activity vs. all target diseases, unless stated otherwise. Wheat plants (variety 'Yuma') were grown from seed in a greenhouse in soil-less potting mix until the first leaf was fully emerged, with 7-10 seedlings per pot. These plants were inoculated with an aqueous spore suspension of Zymoseptoria tritici either 3 days prior to fungicide treatment (3 day curative; 3DC) or 1 day after fungicide treatment (1 day protectant; 1DP). After inoculation the plants were kept in 100% relative humidity for three days to permit spores to germinate and infect the leaf. The plants were then transferred to a greenhouse for disease to develop. When disease symptoms were fully expressed on the 1st leaves of untreated plants, infection levels were assessed on a scale of 0 to 100 percent disease severity. Percent disease control was calculated using the ratio of disease severity on treated plants relative to untreated plants.
# [2] = system: Puccinia triticina; experiment: Wheat brown rust, whole-plant fungicidal activity (PUCCRT); type: in vivo, Puccinia triticina on wheat plants (variety 'Yuma'); details: 24 h, 1DP (1 day protectant), read-out: % Disease Control Rating PUCCRT
# Procedure: Technical grades of materials were dissolved in acetone, which were then mixed with nine volumes of water (H2O) containing 110 ppm Triton X-100. The fungicide solutions were applied onto wheat seedlings using an automated booth sprayer to run-off. All sprayed plants were allowed to air dry prior to further handling. All fungicides were evaluated using the aforementioned method for their activity vs. all target diseases, unless stated otherwise.
# Example B: Evaluation of Fungicidal Activity: Wheat Brown Rust (Puccinia triticina; Synonym: Puccinia recondita f sp. tritici; Bayer Code PUCCRT)
# Wheat plants (variety ‘Yuma’) were grown from seed in a greenhouse in soil-less potting mix until the first leaf was fully emerged, with 7-10 seedlings per pot. These plants were inoculated with an aqueous spore suspension of Puccinia triticina after fungicide treatments. After inoculation, the plants were kept in a dark dew room with 100% relative humidity overnight to permit spores to germinate and infect the leaf. The plants were then transferred to a greenhouse for disease to develop. Fungicide formulation, application and disease assessment followed the procedures as described in Example A.
# [3] = system: Phakopsora pachyrhizi; experiment: Asian soybean rust, whole-plant fungicidal activity (PHAKPA); type: in vivo; details: read-out: % Disease Control Rating PHAKPA
# Procedure: Example C: Evaluation of Fungicidal Activity: Asian Soybean Rust (Phakopsora pachyrhizi; Bayer Code […]) Technical grades of materials were dissolved in acetone, which were then mixed with nine volumes of H2O containing 0.011% Tween-20. The fungicide solutions were applied onto soybean seedlings using an automated booth sprayer to run-off. All sprayed plants were allowed to air dry prior to further handling. Soybean plants (variety 'Williams 82') were grown in soil-less potting mix, with one plant per pot. Ten-day-old seedlings were used for testing. Plants were inoculated as described in Example A. Plants were incubated for 24 h in a dark dew room with 100% relative humidity then transferred to a growth room for disease to develop. Fungicide formulation and application were made as described in Example A. When disease symptoms were fully expressed, disease severity was assessed on the sprayed leaves on a scale of 0 to 100 percent. Percent disease control was calculated using the ratio of disease severity on treated plants relative to untreated plants.
# [4] = system: Rhynchosporium commune; experiment: Leaf blotch of barley, whole-plant fungicidal activity (RHYNSE); type: in vivo; details: 24 h, 1DP (1 day protectant), read-out: % Disease Control Rating RHYNSE
# Procedure: Technical grades of materials were dissolved in acetone, which were then mixed with nine volumes of water (H2O) containing 110 ppm Triton X-100. The fungicide solutions were applied onto wheat seedlings using an automated booth sprayer to run-off. All sprayed plants were allowed to air dry prior to further handling. All fungicides were evaluated using the aforementioned method for their activity vs. all target diseases, unless stated otherwise. Example D: Evaluation of Fungicidal Activity: Leaf Blotch of Barley (Rhynchosporium commune; Bayer Code […]) Barley plants (variety 'Harrington') were grown from seed in a greenhouse in soil-less potting mix until the first leaf was fully emerged, with 7-10 seedlings per pot. These plants were inoculated with an aqueous spore suspension of Rhynchosporium commune after fungicide treatments. After inoculation, the plants were kept in a dark dew room with 100% relative humidity for two days to permit spores to germinate and infect the leaf. The plants were then transferred to a greenhouse for disease to develop. Fungicide formulation and application were made as described in Example A. Disease assessment was conducted as described in Example A.
SMILES,"pest or weed control at 200 ppm ([1]; 24 h, 1DP (1 day protectant))","pest or weed control at 200 ppm ([1]; 72 h, 3DC (3 day curative))",pest or weed control at 200 ppm [2],"pest or weed control at 200 ppm ([3]; 24 h, 1DP (1 day protectant))","pest or weed control at 200 ppm ([3]; 72 h, 3DC (3 day curative))",pest or weed control at 200 ppm [4]
CC/C(=N\c1cc(C)c(C(=O)CC2CCCC2)cc1C)N(C)CC [Compound 91],< 20%,< 20%,> 85%,> 85%,> 85%,< 20%
CCN(C)/C=N/c1cc(C)c(C(=O)Cc2ccccc2F)cc1C [Compound 18],50 to 85%,< 20%,50 to 85%,> 85%,> 85%,> 85%
CCN(C)/C=N/c1cc(C)c(C(=O)C2CCC2)cc1C(F)(F)F [Compound 100],–,–,> 85%,> 85%,> 85%,–
Cc1cc(C(=O)CC2CCCCC2)c(C)cc1/N=C/N(C)c1ccccc1 [Compound 44],–,–,–,< 20%,< 20%,–
Cc1cc(C(=O)CC2CCCCC2)c(C)cc1/N=C/N(C)C1CCCCC1 [Compound 40],–,–,–,< 20%,< 20%,–
Cc1cc(C(=O)CC2CCCCC2)c(C)cc1/N=C/N1CCOCC1 [Compound 43],–,–,–,< 20%,< 20%,–
CCN(C)/C=N/c1cc(C)c(C(=O)C2CCC2)cc1OC [Compound 103],–,–,50 to 85%,20 to 50%,> 85%,–
CCN(C)/C=N/c1ccc(C(=O)CC2CCCC2)cc1 [Compound 97],–,–,50 to 85%,50 to 85%,50 to 85%,–
C=CCN(C)/C=N/c1cc(C)c(C(=O)CC2CCCCC2)cc1C [Compound 39],–,–,–,50 to 85%,> 85%,–
CCN(C)/C=N/c1cc(OC)c(C(=O)C2CCC2)cc1C [Compound 99],–,–,> 85%,> 85%,> 85%,–
CCN(C)/C=N/c1ccc(C(=O)C2CCC2)cc1C [Compound 95],–,–,> 85%,20 to 50%,20 to 50%,–
CCN(C)/C=N/c1cc(C)c(C(=O)C2CCC2)cc1F [Compound 102],–,–,> 85%,50 to 85%,> 85%,–
Cc1cc(C(=O)CC2CCCCC2)c(C)cc1/N=C/N1CCCC1 [Compound 41],–,–,–,> 85%,> 85%,–
CCN(C)/C=N/c1ccc(C(=O)C2CCC2)c(C)c1 [Compound 101],–,–,< 20%,< 20%,< 20%,–
Cc1cc(C(=O)CC2CCCCC2)c(C)cc1/N=C/N1CCCCC1 [Compound 42],–,–,–,> 85%,> 85%,–
